Values quoted from earlier work as cited in patent US11071776B2, “Nanoparticles for treatment of allergy” (priority 2012, dated 2021).

SMILES: CCCCCCCCCCCCCCCCCCCCCCCCCC(=O)N[C@@H](CO[C@H]1O[C@H](CO)[C@H](O)[C@H](O)[C@H]1O)[C@H](O)[C@H](O)CCCCCCCCCCCCCC [αGalCer, alpha-galactosylceramide]
- toxicity to humans: not toxic to humans
